Data on 21 compounds can be found in US20230099344A1, “COMPOUNDS AND METHODS FOR THE TARGETED DEGRADATION OF IRAK-4” (Arvinas Operations, Inc., priority 2021, published 2023).

What all share (assay type): cell-based
For experiment [1], the system named is IL6. Nature of the experiment: R848 stimulated IL6 inhibition assay in PBMC. The note with it: PBMC, human PBMCs, R848 stimulation, compound overnight, IL6 by MSD after 24 hrs; for Dmax: Homo sapiens, 24 h, read-out: R848 stim IL6 inhibition Dmax; for IC50: read-out: R848 stim IL6 inhibition IC50. In short, it runs like this: (§1)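 Primary human PBMCs plated at 2.0×10^6 cells/mL are incubated with compound overnight. Stimulation follows using the donor's EC50 concentration of agonist. MSD detects secreted IL6/IL8 at 24 hrs.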

In experiment [2] the target is T1, IRAK-4 (Homo sapiens, UniProt Q9NWZ3).
T1 sequence (Q9NWZ3 1-460): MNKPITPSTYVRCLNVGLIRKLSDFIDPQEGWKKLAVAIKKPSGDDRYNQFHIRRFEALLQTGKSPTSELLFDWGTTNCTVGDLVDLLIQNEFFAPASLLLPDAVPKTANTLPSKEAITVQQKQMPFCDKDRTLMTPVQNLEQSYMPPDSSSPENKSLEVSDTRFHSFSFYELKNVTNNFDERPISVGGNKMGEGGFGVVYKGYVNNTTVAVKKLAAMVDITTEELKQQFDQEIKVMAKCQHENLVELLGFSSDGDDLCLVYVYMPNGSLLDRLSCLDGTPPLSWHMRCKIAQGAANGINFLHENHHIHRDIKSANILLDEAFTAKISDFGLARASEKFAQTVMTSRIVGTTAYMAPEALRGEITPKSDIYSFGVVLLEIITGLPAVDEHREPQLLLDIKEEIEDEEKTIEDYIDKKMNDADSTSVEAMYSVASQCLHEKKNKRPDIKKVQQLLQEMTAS
Nature of the experiment: IRAK-4 ELISA, OCI-Ly10 degradation. On the set-up: endogenous in cells. The note with it: treated overnight; for Dmax: OCI-Ly10, OCI-Ly10 cells; for DC50 / OCI-LY10 Dmax: OCI-Ly10 cells. The protocol:
Reagents: Human IRAK-4 Matched Antibody Pair Kit (Abcam ab218182) and ELISA Accessory Pack (Abcam ab210905).
Cell Treatment and Lysis:
1. OCI-Ly10: 200,000 cells are seeded at 1×10^6/ml in 96-well U-bottom plates 200 ul per well, treated with compound the same day. Incubate overnight. 2. PBMC: 800,000 cells are seeded at 2×10^6/ml in 96-well U-bottom deep-well plates, 400 ul per well, treated with compound the same day. Incubate overnight.
Cell lysate is collected and analyzed by ELISA for IRAK-4 levels.
On the technique in general: An ELISA detects its analyte on a solid surface through an enzyme-linked reagent.

In experiment [3] the test system is IL6. The experiment can be described thus: LPS stimulated IL6 inhibition assay in PBMC. The note with it: Homo sapiens, PBMC, 24 h, human PBMCs, LPS stimulation, compound overnight, IL6 by MSD after 24 hrs; for Dmax: read-out: LPS Stim IL6 inhibition Dmax; for IC50: read-out: LPS stim IL6 inhibition IC50. The gist of the method:
as §1

Experiment [4] addresses T1, IRAK-4. Nature of the experiment: IRAK-4 ELISA, PBMC degradation. As to conditions: treated overnight. Also on record: endogenous in cells; host or cells: PBMC. The gist of the method: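 Readout: IRAK-4 protein level in cell lysate, sandwich ELISA. Cells: OCI-Ly10 at 1×10^6/ml or PBMC at 2×10^6/ml, compound added same day, overnight incubation.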

With `CC(C)Oc1cc2c(cc1NC(=O)c1cnn3cccnc13)CN(C1CCN(CC3(F)CN(c4ccc5c(c4)C(=O)N(C4CCC(=O)NC4=O)C5=O)C3)CC1)C2=O` (centres unmarked) [Example 57, N-(2-(1-((1-(2-(2,6-dioxopiperidin-3-yl)-1,3-dioxoisoindolin-5-yl)-3-fluoroazetidin-3-yl)methyl)piperidin-4-yl)-6-isopropoxy-1-oxoisoindolin-5-yl)pyrazolo[1,5-a]pyrimidine-3-carboxamide], in the experiment with IL6 [1], the Dmax was at least 90% and the IC50 was 50 to 100 nM. At IRAK-4 [2], the Dmax was at least 90% and the DC50 is 10 to 50 nM. For the same compound, in the experiment with IL6 [3], the Dmax lay within 70 to 80% and the IC50 lay in the range of 10 to 50 nM. In addition, at IRAK-4 [4], the DC50 was below 1 nM, the Dmax was at least 90% and the “PBMC DC90” value is reported as “A (A represents a DC90 value <10.0 nM)”.
At IRAK-4 [2], `CC(C)Oc1cc2c(cc1NC(=O)c1cnn3cccnc13)CN(C1CCN(CC3(F)CCN(c4ccc5c(c4)C(=O)N(C4CCC(=O)NC4=O)C5=O)CC3)CC1)C2=O` (centres unmarked) [Example 58] yielded a Dmax of at least 90% and a DC50 of 10 to 50 nM. Moreover, on IRAK-4 [4], the DC50 is 1 to 5 nM; the Dmax is at least 90%; the “PBMC DC90” value is “B (B represents a DC90 value ≥10.0 nM and <25.0 nM)”.
At IRAK-4 [2], `CC(C)(C1CCN(c2ccc3c(c2)C(=O)N(C2CCC(=O)NC2=O)C3=O)CC1)N1CCC(N2Cc3cc(NC(=O)c4cnn5cccnc45)c(OCC4CC4)cc3C2=O)CC1` (centres unmarked) [Example 87] displayed a Dmax of at least 90% and a DC50 of 50 to 100 nM. Moreover, on IRAK-4 [4], the DC50 lay in the range of 5 to 10 nM, the Dmax is 80 to 90% and the “PBMC DC90” value was “D (D represents a DC90 value ≥50 nM)”.
As for `O=C1CCC(N2C(=O)c3ccc(N4CCC(F)(CN5CCC(N6Cc7cc(NC(=O)c8cnn9cccnc89)c(OCC8CC8)cc7C6=O)CC5)CC4)cc3C2=O)C(=O)N1` (centres unmarked) [Example 88], on IRAK-4 [2], the Dmax fell in the range of 80 to 90% and the DC50 is 50 to 100 nM. Moreover, in the experiment with IL6 [3], the Dmax is 70 to 80% and the IC50 is 10 to 50 nM. Further, at IRAK-4 [4], the DC50 was below 1 nM, the Dmax was at least 90% and the “PBMC DC90” value is listed as “A (A represents a DC90 value <10.0 nM)”.
At IRAK-4 [2], `CC(C)Oc1cc2c(cc1NC(=O)c1cnn3cccnc13)CN([C@H]1CCN(CC3CCN(c4ccc5c(c4)C(=O)N(C4CCC(=O)NC4=O)C5=O)CC3)C[C@@H]1F)C2=O` (some centres unmarked) [Example 91] yielded a Dmax of at least 90% and a DC50 of 10 to 50 nM. Further, on IRAK-4 [4], the DC50 is 1 to 5 nM; the Dmax was at least 90%; the “PBMC DC90” value was “B (B represents a DC90 value ≥10.0 nM and <25.0 nM)”.
On to `O=C1CCC(N2C(=O)c3ccc(N4CCN(CCN5CCC([C@H](F)CN6Cc7cc(NC(=O)c8cnn9cccnc89)c(N8CCOCC8)cc7C6=O)CC5)CC4)cc3C2=O)C(=O)N1` (some centres unmarked) [Example 93], for which, on IRAK-4 [2], the Dmax was at least 90% and the DC50 lay within 10 to 50 nM. Moreover, on IRAK-4 [4], the DC50 was below 1 nM, the Dmax is at least 90% and the “PBMC DC90” value is “A (A represents a DC90 value <10.0 nM)”.
At IRAK-4 [2], `O=C1CCC(N2C(=O)c3ccc(N4CCC(CN5CC[C@H](N6Cc7cc(NC(=O)c8cnn9cccnc89)c(N8CCOCC8)cc7C6=O)[C@@H](F)C5)CC4)cc3C2=O)C(=O)N1` (some centres unmarked) [Example 94] came in with a Dmax of 70 to 80% and a DC50 of 10 to 50 nM. Besides, on IRAK-4 [4], the DC50 was 1 to 5 nM, the Dmax is at least 90% and the “PBMC DC90” value is on record as “A (A represents a DC90 value <10.0 nM)”.
The corresponding values for `O=C1CCC(N2C(=O)c3ccc(N4CC(CN5CCC(N6Cc7cc(NC(=O)c8cnn9cccnc89)c(N8CCC(N9CCC9)CC8)cc7C6=O)CC5)C4)cc3C2=O)C(=O)N1` (centres unmarked) [Example 98] are at least 90%, 10 to 50 nM, 5 to 10 nM, 70 to 80% and “D (D represents a DC90 value ≥50 nM)”.
`O=C1CCC(N2C(=O)c3ccc(N4CCC(CN5CCC(n6cc7cc(NC(=O)c8cnn9cc(Cl)cnc89)c(OCC8CC8)cc7n6)CC5)CC4)cc3C2=O)C(=O)N1` (centres unmarked) [Example 128]: in the experiment with IL6 [1], the Dmax was in the range of 80 to 90% and the IC50 lay in the range of 10 to 50 nM. At IRAK-4 [2], the Dmax is at least 90% and the DC50 fell in the range of 10 to 50 nM. In the experiment on IL6 [3], the Dmax lay within 70 to 80% and the IC50 is 10 to 50 nM.
On IRAK-4 [2], `O=C1CCC(N2C(=O)c3ccc(N4CCC(F)(CN5CCC(n6cc7cc(NC(=O)c8cnn9cccnc89)c(OCC8CC8)cc7n6)CC5)CC4)cc3C2=O)C(=O)N1` (centres unmarked) [Example 166] registered a Dmax of at least 90% and a DC50 of 10 to 50 nM. Moreover, on IRAK-4 [4], the DC50 fell in the range of 5 to 10 nM; the Dmax is at least 90%; the “PBMC DC90” value is “C (C represents a DC90 value ≥25.0 nM and <50 nM)”.
As for `O=C1CCC(NC(=O)c2ccc(N3CCC(CN4CCC(n5cc6cc(NC(=O)c7cnn8cccnc78)c(OCC7CC7)cc6n5)CC4)CC3)cc2F)C(=O)N1` (centres unmarked) [Example 290], on IRAK-4 [2], the DC50 lay within 50 to 100 nM and the “OCI-LY10 Dmax” value is on record as “D (D represents a Dmax value <70)”.
`COc1cc2nn(C3CCN(CC4CN(c5ccc(C(=O)NC6CCC(=O)NC6=O)c(F)c5)C4)CC3)cc2cc1NC(=O)c1cnn2cccnc12` (centres unmarked) [Example 294]: at IRAK-4 [2], the Dmax lay within 80 to 90% and the DC50 was 10 to 50 nM.
At IRAK-4 [2], `COc1cc2nn(C3CCN(CC4CCN(c5ccc(C(=O)NC6CCC(=O)NC6=O)c(F)c5)CC4)CC3)cc2cc1NC(=O)c1cnn2cccnc12` (centres unmarked) [Example 295] had a Dmax of at least 90% and a DC50 of 10 to 50 nM.
The like results for `O=C1CCC(NC(=O)c2ccc(N3CC(CN4CCC(n5cc6cc(NC(=O)c7cnn8cc(Cl)cnc78)c(OCC7CC7)cc6n5)CC4)C3)cc2F)C(=O)N1` (centres unmarked) [Example 299] were, in that order, at least 90% and 10 to 50 nM.
For the compound `COc1cc2nn([C@H]3CC[C@@H](N(C)C4CN(c5ccc6c(c5)C(=O)N(C5CCC(=O)NC5=O)C6=O)C4)CC3)cc2cc1NC(=O)c1cnn2cccnc12` (some centres unmarked) [Example 333], the DC50 at IRAK-4 [2] is at least 100 nM.
With `COc1cc2nn([C@H]3CC[C@H](N(C)CC#Cc4ccc5c(c4)C(=O)N(C4CCC(=O)NC4=O)C5=O)CC3)cc2cc1NC(=O)c1cnn2cccnc12` (some centres unmarked) [Example 340], on IRAK-4 [2], the DC50 lay in the range of 10 to 50 nM and the “OCI-LY10 Dmax” value is given as “A (A represents a Dmax value ≥90)”.
The compound `COc1cc2nn(C3CCN(CC4CN(c5ccc6c(c5)n(C)c(=O)n6C5CCC(=O)NC5=O)C4)CC3)cc2cc1NC(=O)c1cnn2cccnc12` (centres unmarked) [Example 380] showed a DC50 on IRAK-4 [2] of at least 100 nM.
On IRAK-4 [2], `CC(C)(O)c1cc2nn(C3CCN(CC4CN(c5ccc6c(c5)C(=O)N(C5CCC(=O)NC5=O)C6=O)C4)CC3)cc2cc1NC(=O)c1cnn2cc(Cl)cnc12` (centres unmarked) [Example 391, 6-chloro-N-(2-(1-((1-(2-(2,6-dioxopiperidin-3-yl)-1,3-dioxoisoindolin-5-yl)azetidin-3-yl)methyl)piperidin-4-yl)-6-(2-hydroxypropan-2-yl)-2H-indazol-5-yl)pyrazolo[1,5-a]pyrimidine-3-carboxamide] showed a Dmax of 80 to 90% and a DC50 of 10 to 50 nM.
The like results for `CC(C)(O)c1cc2nn(C3CCN(CC4CN(c5ccc6c(c5)C(=O)N(C5CCC(=O)NC5=O)C6=O)C4)CC3)cc2cc1NC(=O)c1cnn2cccnc12` (centres unmarked) [Example 392] were, in that order, 70 to 80% and 50 to 100 nM.
The corresponding values for `O=C1CCC(N2C(=O)c3ccc(CCN4CCC(N5Cc6cc(NC(=O)c7cnn8cccnc78)c(N7CCOCC7)nc6C5=O)CC4)cc3C2=O)C(=O)N1` (centres unmarked) [Example 405] are 70 to 80% and at least 100 nM.
At IRAK-4 [2], `O=C1CCC(N2C(=O)c3ccc(N4CC(CN5CCC(N6Cc7cc(NC(=O)c8cnn9cccnc89)c(N8CCOCC8)nc7C6=O)CC5)C4)cc3C2=O)C(=O)N1` (centres unmarked) [Example 406] yielded a Dmax below 70% and a DC50 of 50 to 100 nM.

As usually defined, the IC50 is the concentration at which inhibition is half-maximal. Usually DC50 stands for the midpoint of the concentration-degradation curve. Higher therefore signals degradation only at high concentration.
